Measurements from patent US20250035641A1, “COMPOSITIONS AND METHODS RELATED TO PROTEIN LABELING” (The Chinese University of Hong Kong, priority 2023, published 2025).
Each block holds one compound with its values, some of them ahead of it.

What was measured:
[1] = tested on: HTN-BRD4 covalently linked to OGTAC-1
FKBP12^F36V = FKBP12^F36V (Homo sapiens, UniProt P62942, F37V); details: cited from earlier work
HTN-CK2α [2] = biological target: T1, HTN-CK2α (Homo sapiens, UniProt P68400); experiment: Immunoblot of HTN-CK2α O-GlcNAcylation in HEK293T cells co-expressing fOGT; type: cell-based; details: co-treated with OGTAC-1
Excerpt: Ck2α is a well-studied OGT substrate.^17,25 Its Ser347 is conservatively O-GlcNAcylated and this modification was reported to affect its kinase activity.^16,17 We first co-expressed HTN-Ck2α and fOGT in HEK293T cells at different ratio and found the basal O-GlcNAcylation level of HTN-Ck2α was higher than what we detected in the case of HTN-BRD4. Therefore, a lower ratio of fOGT expression (1:100) was selected for the assessment of OGTAC potency (FIG. 9). […] The induction of specific O-GlcNAcylation on HTN-Ck2α was further confirmed by mass-shift assay. […] To validate the direct binding to both fOGT and HTN-Ck2α is critical, we exploited AP 1867 and rhodamine ligand, which bind to fOGT and HTN-Ck2α respectively, to co-treat with OGTAC-1.
During immunoblotting study, we noticed that even for whole cell lysate (WCL), RL2 antibody band (green) and HTN-CK2α protein band (red) are perfectly overlapped and clearly distinguishable from other bands on blot (FIG. 6B). We assessed the OGTAC treatment effects by quantifying the RL2 signal that is overlapping with HTN-Ck2α in WCL, and found they are corresponding with the results achieved by IP-WB method (FIG. 6C). Therefore, we quantify the intensity of RL2 band that overlapping with HTN-CK2α level instead of IP CK2α in later study.
For each IP reaction, 2.2×10^6 HEK293T cells were seed in 10 cm dish. After cells attached, transfection reagents and plasmids were prepared and added in DMEM. After 24 h transfection, media were replaced by fresh warm complete media with DMSO or probes. For washout study, after 4 h treatment, media with DMSO or OGTAC-4 (500 nM) were replaced by fresh media with DMSO or AP1867 (50 μM) for further incubation. After certain time of OGTACs treatment, cells were collected by cold PBS and lysed by 200 μL complete IP lysis buffer. The lysate was incubated on ice for 20 min, spun down at 14,000 RPM at 4° C. for 15 mins, and the supernatant were collected for bicinchoninic acid (BCA) assay and normalized to a final 2 mg/mL. For input, 20 μL of diluted sample was reacted with equal volume of 10 μM TMR ligand in IP lysis buffer and rotate gently at RT for 15 mins. The remaining samples were subjected to protein A/G magnetic beads (MedChemExpress, HY-K0202), which pre-binding with protein target protein antibody. For samples for LC-MS/MS or HTN-BRD4 mutant constructs. Halo-Trap Magnetic Agarose (Proteintech, otma) was used to incubate with protein lysates. After gentle rotation at 4° C. for at least 16 h, the beads were washed with IP lysis buffer and boiled in 40 μL 2×SDS-loading buffer (Biorad #1610747) for 5 mins to elute proteins from beads. Eluted samples were directly subjected into WB analysis. To get stronger signal of RL2, we used anti-mouse-HRP (Cell signaling, #7076) as secondary antibody for RL2 and anti-rabbit-DyLight 488 (Invitrogen, #35552) as secondary antibody for total target proteins.
In general, cells (from 12 well plate) were lysed by 80 μl RIPA lysis buffer (Thermo Scientic 89901) supplemented with 20 μM OGA inhibitor (Thaimet G, Bidepharm BD571819) and 100X protease inhibitor (MedChemExpress, HY-K0010), incubated on ice for 20 min, spun down at 14,000 RPM at 4° C. for 15 mins, and the supernatant were collected for bicinchoninic acid (BCA) assay and normalizedeto a final 2 mg/mL concentration. About 30 μg of protein samples were loaded for sodium dodecyl sulfatepolyacrylamide gel electrophoresis (SDS-PADE) and blotted with indicated antibodies.
Target sequence in this assay (P68400 with tags, fused parts or gaps): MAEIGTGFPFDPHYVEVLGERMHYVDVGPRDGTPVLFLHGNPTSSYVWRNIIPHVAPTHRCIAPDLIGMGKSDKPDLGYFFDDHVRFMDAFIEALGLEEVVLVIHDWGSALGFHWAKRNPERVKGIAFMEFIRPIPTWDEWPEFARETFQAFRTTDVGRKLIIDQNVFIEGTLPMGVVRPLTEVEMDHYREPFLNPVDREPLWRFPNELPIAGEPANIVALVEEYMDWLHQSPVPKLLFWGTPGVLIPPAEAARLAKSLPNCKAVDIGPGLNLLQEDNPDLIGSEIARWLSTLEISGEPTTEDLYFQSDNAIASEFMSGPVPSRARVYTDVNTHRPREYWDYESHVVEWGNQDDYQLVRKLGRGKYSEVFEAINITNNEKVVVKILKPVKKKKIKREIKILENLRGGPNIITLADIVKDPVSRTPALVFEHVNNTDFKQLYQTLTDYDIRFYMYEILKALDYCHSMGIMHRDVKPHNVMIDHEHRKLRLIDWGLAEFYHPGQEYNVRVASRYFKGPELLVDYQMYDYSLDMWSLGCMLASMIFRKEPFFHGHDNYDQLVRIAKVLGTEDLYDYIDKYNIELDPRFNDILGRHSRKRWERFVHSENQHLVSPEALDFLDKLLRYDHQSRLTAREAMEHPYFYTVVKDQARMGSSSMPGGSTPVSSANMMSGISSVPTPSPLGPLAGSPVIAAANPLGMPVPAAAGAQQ
Target sequence in this assay (P62942+O15294 fused P62942:F37V partner): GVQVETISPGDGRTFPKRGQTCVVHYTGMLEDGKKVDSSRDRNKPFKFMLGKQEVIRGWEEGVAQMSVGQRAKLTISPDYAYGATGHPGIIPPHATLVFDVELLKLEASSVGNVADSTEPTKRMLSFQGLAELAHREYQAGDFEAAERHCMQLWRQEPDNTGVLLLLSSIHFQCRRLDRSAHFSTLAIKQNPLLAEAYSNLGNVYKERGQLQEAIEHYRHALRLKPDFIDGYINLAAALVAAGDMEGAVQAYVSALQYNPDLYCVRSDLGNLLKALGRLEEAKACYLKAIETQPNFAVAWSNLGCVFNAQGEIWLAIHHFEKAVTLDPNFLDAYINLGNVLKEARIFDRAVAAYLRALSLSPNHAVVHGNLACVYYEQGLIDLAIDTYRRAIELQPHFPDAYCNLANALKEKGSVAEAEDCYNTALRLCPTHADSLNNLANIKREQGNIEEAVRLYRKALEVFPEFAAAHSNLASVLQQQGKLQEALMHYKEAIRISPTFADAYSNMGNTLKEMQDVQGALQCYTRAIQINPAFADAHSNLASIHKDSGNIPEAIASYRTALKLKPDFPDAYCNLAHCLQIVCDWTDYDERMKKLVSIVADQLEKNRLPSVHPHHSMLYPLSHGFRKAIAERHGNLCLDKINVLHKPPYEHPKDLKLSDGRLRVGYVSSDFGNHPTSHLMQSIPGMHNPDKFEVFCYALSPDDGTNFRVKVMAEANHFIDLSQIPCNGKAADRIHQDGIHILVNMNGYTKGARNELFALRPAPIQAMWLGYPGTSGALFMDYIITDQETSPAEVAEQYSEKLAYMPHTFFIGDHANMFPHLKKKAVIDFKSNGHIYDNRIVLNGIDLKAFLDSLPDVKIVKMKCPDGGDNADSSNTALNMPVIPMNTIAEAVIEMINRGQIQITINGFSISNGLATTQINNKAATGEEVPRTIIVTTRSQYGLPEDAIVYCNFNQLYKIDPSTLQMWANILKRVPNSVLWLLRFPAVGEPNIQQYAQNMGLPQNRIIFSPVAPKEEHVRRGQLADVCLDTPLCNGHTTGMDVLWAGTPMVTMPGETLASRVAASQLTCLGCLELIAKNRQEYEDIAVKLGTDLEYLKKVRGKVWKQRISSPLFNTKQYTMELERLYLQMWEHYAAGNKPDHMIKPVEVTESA

HTN-BRD4 and 0tfOGT = biological target: T2, HTN-BRD4 and 0tfOGT (Homo sapiens, UniProt O60885+P62942, F37V); experiment: Washout / reversibility study, HTN-BRD4:0tfOGT; type: cell-based; details: AP1867 50 μM after OGTAC-4 500 nM 4 h
T2 construct: HaloTag fragment; 0TPR(463-1046)-; expressed in transfected cells; host or cells: HEK293T
T2 sequence (P62942 whole entry F37V, stated change not applied, other chains not shown, the tested form may be a part): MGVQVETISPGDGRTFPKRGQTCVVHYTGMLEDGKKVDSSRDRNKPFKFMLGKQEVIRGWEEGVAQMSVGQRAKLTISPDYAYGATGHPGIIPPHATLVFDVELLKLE
Procedure: FIGS. 7A-7E: Specificity and reversibility of OGTAC strategy. […] (B), Constructs of fOGT with 13.5 (rounded to 13) TPR and 0TPR-fOGT (0tfOGT). (C). […] (D), Dose-dependent O-GlcNAcylation profile of HTN-BRD4 by OGTAC-4 treatment. HEK293T cells expressing HTN-BRD4:0tfOGT=1:0.05 were treated with an increasing concentration of OGTAC-4 for 4 h. Then, the O-GlcNAcylation level of HTN-BRD4 was assessed by immunoblot after IP using BRD4 antibody. All quantifications are shown as mean±s.e.m. of n=3 biologically independent experiments. (E), Reversible effect of OGTAC-4 on HTN-BRD4 can be achieved by addition of AP1867. HEK293T cells expressing HTN-BRD4:0tfOGT=1:0.05 were pretreated with OGTAC-4 (500 nM) or DMSO for 4 h, and culturing media were replaced by fresh media with DMSO or AP1867 (50 μM) for the indicated time. The quantifications in right panel were conducted by the normalizing the fold-change (OGTAC-4/DMSO) for each post-washout time point to the value of 4 h pre-treatment. All quantifications are shown as mean±s.e.m. of 3 independent biological repeats. Statistical significance was calculated with ordinary one-way ANOVA comparing samples with different transfection conditions or OGTAC-treatment. ns, p≥0.05; *p<0.05; **p<0.01; ***p<0.001; ****p<0.0001.
To assess the potential application of our OGTAC strategy in downstream biological studies, we investigated the reversibility of OGTACs. […] Additionally. the O-GlcNAc level of BRD4 returned to baseline after 6 hours of AP1867 treatment, confirming the reversibility of the induction effect (FIG. 7E).
For each IP reaction, 2.2×10^6 HEK293T cells were seed in 10 cm dish. After cells attached, transfection reagents and plasmids were prepared and added in DMEM. After 24 h transfection, media were replaced by fresh warm complete media with DMSO or probes. For washout study, after 4 h treatment, media with DMSO or OGTAC-4 (500 nM) were replaced by fresh media with DMSO or AP1867 (50 μM) for further incubation. After certain time of OGTACs treatment, cells were collected by cold PBS and lysed by 200 μL complete IP lysis buffer. […]

HTN-CK2α [3] = biological target: T1, HTN-CK2α; experiment: O-GlcNAcylation of HTN-CK2α with 0tfOGT; type: cell-based; parameters: 0TPR(463-1046)-; expressed in transfected cells
Procedure: FIGS. 18A and 18B: Immunoblotting analysis of the global O-GlcNAcylation inducing effect of truncated OGTAC-4 and OGTAC-1 on HTN-BRD4 and HTN-CK2α respectively. (A), O-GlcNAcylation inducing effect of OGTAC-4 is dependent on the expression of 0tfOGT. […] The quantification was conducted by immunoblot signal of probe treatment/control as the mean±s.e.m. of n=2 biologically independent experiments. TR, transfection reagent.
Target sequence in this assay (P68400 with tags, fused parts or gaps): as the sequence (P68400 with tags, fused parts or gaps) above
Target sequence in this assay (P62942+O15294 fused P62942:F37V partner): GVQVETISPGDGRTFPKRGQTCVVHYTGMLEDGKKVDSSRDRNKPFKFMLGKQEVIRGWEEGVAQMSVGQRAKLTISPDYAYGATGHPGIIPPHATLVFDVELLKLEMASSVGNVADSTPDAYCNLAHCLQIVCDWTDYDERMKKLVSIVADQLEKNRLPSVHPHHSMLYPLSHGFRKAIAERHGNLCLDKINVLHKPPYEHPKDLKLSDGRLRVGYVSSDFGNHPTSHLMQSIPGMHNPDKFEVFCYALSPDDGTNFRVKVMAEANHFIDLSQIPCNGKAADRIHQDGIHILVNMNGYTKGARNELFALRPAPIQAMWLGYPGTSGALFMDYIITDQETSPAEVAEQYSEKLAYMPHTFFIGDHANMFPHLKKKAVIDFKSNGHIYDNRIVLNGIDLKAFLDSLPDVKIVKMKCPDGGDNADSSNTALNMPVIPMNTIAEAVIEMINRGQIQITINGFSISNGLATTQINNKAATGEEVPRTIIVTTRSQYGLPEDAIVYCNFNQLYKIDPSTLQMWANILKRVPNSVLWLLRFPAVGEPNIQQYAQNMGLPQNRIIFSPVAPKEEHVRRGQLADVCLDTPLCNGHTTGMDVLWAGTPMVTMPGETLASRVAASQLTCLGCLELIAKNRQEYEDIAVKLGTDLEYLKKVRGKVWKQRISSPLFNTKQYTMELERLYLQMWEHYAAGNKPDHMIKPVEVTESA

Chain of FKBP12^F36V (P62942 whole entry F37V): as the sequence (P62942 whole entry F37V, stated change not applied, other chains not shown, the tested form may be a part) above

Compound: FKBP12^F36V fused-OGT
RL2 signal of BRD4 (O-GlcNAcylation of HTN-BRD4, IP-immunoblot) after 2 h of OGTAC-1 640 nM [1]: 2.5-fold increase at 2 h
RL2 signal of BRD4 (O-GlcNAcylation of HTN-BRD4, IP-immunoblot) after 4 h of OGTAC-1 640 nM [1]: further escalated to around 2.8-fold at 4 h

time for O-GlcNAc level of BRD4 to return to baseline (HTN-BRD4 and 0tfOGT): 6 h
time to marked decrease in ternary complex formation (HTN-BRD4 and 0tfOGT): ≤ 2 h
Compound: CC[C@H](C(=O)N1CCCC[C@H]1C(=O)O[C@H](CCc1ccc(OC)c(OC)c1)c1cccc(OCC(=O)O)c1)c1cc(OC)c(OC)c(OC)c1 [AP1867, 2-[3-[(1R)-3-(3,4-dimethoxyphenyl)-1-[(2S)-1-[(2S)-2-(3,4,5-trimethoxyphenyl)butanoyl]piperidine-2-carbonyl]oxy-propyl]phenoxy]acetic acid]
Kd (FKBP12^F36V): 1.8 nM
effect of competitor co-treatment on OGTAC-1 induced HTN-CK2α O-GlcNAcylation (HTN-CK2α [2]): abolished the O-GlcNAcylation inducing effects

recruitment of 0tfOGT to HTN-CK2α (HTN-CK2α [3]): unable to recruit 0tfOGT to HTN-CK2α
Compound: CCCCCCOCCOCCNC(=O)COc1cccc([C@@H](CCc2ccc(OC)c(OC)c2)OC(=O)[C@@H]2CCCCN2C(=O)[C@@H](CC)c2cc(OC)c(OC)c(OC)c2)c1 [OGTAC-1H, (R)-3-(3,4-dimethoxyphenyl)-1-(3-(2-((2-(2-(hexyloxy)ethoxy)ethyl)amino)-2-oxoethoxy)phenyl)propyl(S)-1-((S)-2-(3,4,5-trimethoxyphenyl)butanoyl)piperidine-2-carboxylate]

Compound: CN(C)c1ccc2c(-c3cc(C(=O)NCCOCCOCCCCCCCl)ccc3C(=O)[O-])c3ccc(=[N+](C)C)cc-3oc2c1 [rhodamine ligand, 4-((2-(2-((6-chlorohexyl)oxy)ethoxy)ethyl)carbamoyl)-2-(6-(dimethylamino)-3-(dimethyliminio)-3H-xanthen-9-yl)benzoate, reference compound]
effect of competitor co-treatment on OGTAC-1 induced HTN-CK2α O-GlcNAcylation (HTN-CK2α [2]): abolished the O-GlcNAcylation inducing effects
